For assay [1], the target named is T1, 14-3-3 tau (Homo sapiens, UniProt P27348).
T1 construct: made in house; host or cells: E. coli DH5α (vector pGEX-KT)
T1 sequence (P27348 1-245): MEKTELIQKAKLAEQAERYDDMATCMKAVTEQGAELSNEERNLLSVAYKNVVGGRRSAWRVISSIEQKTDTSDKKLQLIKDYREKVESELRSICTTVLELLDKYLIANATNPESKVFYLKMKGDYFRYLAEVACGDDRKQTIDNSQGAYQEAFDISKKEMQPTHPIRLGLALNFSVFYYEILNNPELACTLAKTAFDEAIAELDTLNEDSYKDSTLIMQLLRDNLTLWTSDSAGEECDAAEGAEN
Kind of assay: SPR competitive inhibition of 14-3-3 tau binding to phosphorylated Raf-259 peptide. To be noted: isoform tau. As for the experimental part: (§1) The ability of each peptide to inhibit binding of 14-3-3 zeta to the phosphorylated peptide was then tested in a range of concentrations between 1 and 50 μM. 14-3-3 zeta was prepared according to the methods in Example 1 and binding affinities and specificities were determined using the peptides in Table 2. The 14-3-3 zeta fusion proteins (0.5-1.0 μM) were pre-incubated with a given peptide at concentrations between 1 μM and 50 μM. 14-3-3 zeta was then infused across a sensor chip surface which had been previously coupled with the phosphorylated Raf-259 peptide (SEQ ID NO: 4). IC50 values were determined by plotting the concentration of competitor peptide required to achieve a 50% reduction in equilibrium binding.
(§2) There are seven known isoforms of 14-3-3 which form homo- and heterodimers in vivo. If different isoforms of 14-3-3 could bind to proteins with distinct specificities, heterodimeric forms of 14-3-3 might function as modular linker proteins, bringing together different proteins into a single complex. We were, therefore, interested in determining whether different 14-3-3 isoforms recognize phosphoserine in a sequence specific fashion. This hypothesis was tested by expressing and purifying three other 14-3-3 isoforms, eta, beta and tau, and measuring their affinity towards the panel of phosphorylated peptides generated above. Using the Surface Plasmon Resonance method, the "on" and "off" rates for 14-3-3 binding to the phosphorylated Raf-259 peptide were calculated (Table 6).
(§3) Competitive inhibition with the mutated phosphorylated Raf-1 peptides was used to determine whether their specificities were similar (Table 7). In each case, the calculated IC50 s were very similar to those calculated for 14-3-3 zeta.

For another assay, the target named is T2, 14-3-3 eta (Homo sapiens, UniProt Q04917).
T2 construct: made in house; host or cells: E. coli DH5α (vector pGEX-KT)
T2 sequence (Q04917 1-246): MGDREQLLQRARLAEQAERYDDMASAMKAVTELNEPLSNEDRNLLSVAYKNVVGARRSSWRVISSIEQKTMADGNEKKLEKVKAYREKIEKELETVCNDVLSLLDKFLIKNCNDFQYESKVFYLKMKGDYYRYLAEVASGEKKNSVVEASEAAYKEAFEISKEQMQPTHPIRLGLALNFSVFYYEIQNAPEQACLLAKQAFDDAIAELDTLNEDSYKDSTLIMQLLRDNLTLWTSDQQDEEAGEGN
The assay can be described thus: SPR competitive inhibition of 14-3-3 eta binding to phosphorylated Raf-259 peptide. To be noted: isoform eta. The protocol:
as §1, §2, §3

Another assay concerns the target T3, 14-3-3 zeta (Homo sapiens, UniProt P63104).
T3 construct: made in house; host or cells: E. coli DH5α (vector pGEX-KT)
T3 sequence (P63104 1-245): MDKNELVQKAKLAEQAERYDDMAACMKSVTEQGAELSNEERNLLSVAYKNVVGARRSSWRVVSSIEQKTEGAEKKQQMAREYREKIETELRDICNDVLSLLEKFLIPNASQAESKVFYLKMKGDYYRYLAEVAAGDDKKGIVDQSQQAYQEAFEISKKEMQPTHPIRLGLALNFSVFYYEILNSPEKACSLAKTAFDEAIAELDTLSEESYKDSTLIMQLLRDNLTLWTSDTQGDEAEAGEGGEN
The assay can be described thus: SPR competitive inhibition of 14-3-3 zeta binding to chip-coupled phosphorylated Raf-259 peptide. The settings on record: 14-3-3 zeta 0.5-1.0 μM; competitor 1-50 μM; relative affinity only. As for the experimental part:
as §1

For assay [2], the target named is T1, 14-3-3 tau. Kind of assay: Surface plasmon resonance kinetics, 14-3-3 tau binding to phosphorylated Raf-259 peptide. The settings on record: isoform tau. As for the experimental part: (§4) Because the surface plasmon resonance detects binding in real time, this method can be used to directly determine the rates of association (kon) and dissociation (koff). For these kinetic measurements, GST/14-3-3 fusion proteins were injected over a range of concentrations between 200 nM and 5 μM. The "on" rate, kon, was determined by calculating dR/dt for the initial linear portion of association using the Biaevaluation software (Pharmacia). Because ligand rebinding to the sensor chip can affect the "off" rate (koff, Panayotou et al. Mol Cell Biol 13:3567-76, 1993 which is incorporated by reference), we measured the "off" rate in the presence of 50 μM free ligand by using the coinject function of the Biacore. The "off" rate measured in the absence of 50 μM free ligand was approximately 10-fold lower.
as §2
(Surface plasmon resonance follows binding to a sensor surface in real time, without labels.)

Assay [3] addresses T4, 14-3-3 beta (Homo sapiens, UniProt P31946).
T4 construct: made in house; host or cells: E. coli DH5α (vector pGEX-KT)
T4 sequence (P31946 1-246): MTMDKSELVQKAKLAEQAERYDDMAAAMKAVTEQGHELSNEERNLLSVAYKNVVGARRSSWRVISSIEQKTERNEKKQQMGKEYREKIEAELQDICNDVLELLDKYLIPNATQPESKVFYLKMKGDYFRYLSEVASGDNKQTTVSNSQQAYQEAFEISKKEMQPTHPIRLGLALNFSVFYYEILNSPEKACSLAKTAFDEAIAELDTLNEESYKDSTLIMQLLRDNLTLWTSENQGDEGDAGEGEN
The assay can be described thus: SPR competitive inhibition of 14-3-3 beta binding to phosphorylated Raf-259 peptide. To be noted: isoform beta. As for the experimental part:
as §1, §2, §3

For assay [4], the target named is T4, 14-3-3 beta. Kind of assay: Surface plasmon resonance kinetics, 14-3-3 beta binding to phosphorylated Raf-259 peptide. To be noted: isoform beta. The protocol:
as §4, §2

Several values for one entry are separate records, joined by “and”; a condition that tells them apart may be missing. Identical values can stand only once. Where a SMILES comes first, the peptide text is derived from it. [ ]: non-standard residue; d: D form. pS = N[C@@H](COP(=O)(O)O)C(=O)O

The term IC50 denotes the concentration needed to halve the response being measured. A higher IC50 goes with a need for much substance. As usually defined, the Kd is the free concentration of one partner at which half of the binding sites on the other are occupied at equilibrium, for simple one-to-one binding. A high value points to weaker binding. A word on the koff: it is the first-order rate constant of dissociation. High values mean a short-lived complex, low ones a long-lived complex. One may read the kon as the rate constant with which the complex forms. High values mean faster complex formation, low ones slower complex formation. For `CC(C)C[C@H](N)C(=O)N[C@@H](CO)C(=O)N[C@@H](CCC(N)=O)C(=O)N[C@@H](CCCNC(=N)N)C(=O)N[C@@H](CCC(N)=O)C(=O)N[C@@H](CCCNC(=N)N)C(=O)N[C@@H](CO)C(=O)N[C@H](C(=O)N[C@@H](COP(=O)(O)O)C(=O)N[C@H](C(=O)N1CCC[C@H]1C(=O)N[C@@H](CC(N)=O)C(=O)N[C@H](C(=O)N[C@@H](Cc1c[nH]cn1)C(=O)N[C@@H](C)C(=O)O)C(C)C)[C@@H](C)O)[C@@H](C)O` [pS-Raf-259] (H-LSQRQRST[pS]TPNVHA-OH), the half-maximal inhibitory concentration (IC50) was 5 µM at 14-3-3 tau [1]; 5 µM on 14-3-3 eta; 6 µM and ~6 µM on 14-3-3 zeta; 6 µM on 14-3-3 beta [3]. Besides, the equilibrium dissociation constant (Kd) is 0.144 µM at 14-3-3 tau [2] and 0.145 µM on 14-3-3 beta [4]. For the same compound, the koff was determined as 0.0036 s⁻¹ at 14-3-3 tau [2] and 0.0032 s⁻¹ on 14-3-3 beta [4]. In addition, the kon was 25000 M⁻¹ s⁻¹ at 14-3-3 tau [2] and 22000 M⁻¹ s⁻¹ on 14-3-3 beta [4].

The record behind these values is patent US6207393A, “Inhibition of intracellular signal transduction by 14-3-3-binding peptides” (Washington University, priority 1999, dated 2001).
